Assay results published in ChEMBL document CHEMBL1817622, “Synthesis, structure-activity relationship and biological evaluation of novel N-substituted matrinic acid derivatives as host heat-stress cognate 70 (Hsc70) down-regulators” (2011).
The source made the active and inactive calls. No cut-off for these calls is given here.

How the values were obtained:
HepG2 2.2.15 [1] = test: Inhibition of Hsc70 mRNA expression in human HepG2(2.2.15) cells at 100 ug/ml after 24 hrs by RT-PCR analysis; assay type: functional; conditions: HepG2 2.2.15, 24 h
Hepatitis B virus = test: Antiviral activity against Hepatitis B virus infected in human HepG2(2.2.15) cells assessed as inhibition of intracellular HBV DNA replication at 100 ug/mL for 24 hrs by RT-PCR analysis; assay type: functional; parameters: scale not given: the % may be the effect or the level left
[2] = Down regulation of Hsc70 protein level in human HepG2(2.2.15) cells at 100 ug/mL for 24 hrs by RT-PCR analysis; assay type: functional, cell-based
[3] = Down regulation of Hsc70 protein level in human HepG2(2.2.15) cells at 500 ug/mL for 24 hrs by RT-PCR analysis; assay type: functional, cell-based
[4] = Down regulation of Hsc70 protein level in human HepG2(2.2.15) cells after 24 hrs by RT-PCR analysis; assay type: functional, cell-based
HepG2 2.2.15 [5] = test: Ratio of […] to compound inhibition of mRNA expression in human HepG2(2.2.15) cells infected with Hepatitis B virus; assay type: functional

Row | Structure (SMILES) | inhibition at 100 µg/mL (HepG2 2.2.15 [1]) [%] | other results
1 | O=C(O)CCC[C@@H]1[C@H]2CCCN3CCC[C@@H](CN1S(=O)(=O)c1ccccc1)[C@@H]23 | 22.1 | –
2 | CC(=O)N1C[C@@H]2CCCN3CCC[C@@H]([C@H]23)[C@H]1CCCC(=O)O | 29.8 | –
3 | COc1cccc(CN2C[C@@H]3CCCN4CCC[C@@H]([C@H]34)[C@H]2CCCC(=O)O)c1 | 55.6 | –
4 | COc1ccc(CN2C[C@@H]3CCCN4CCC[C@@H]([C@H]34)[C@H]2CCCC(=O)O)cc1 | 72.1 | Activity (Hepatitis B virus): 77%; Activity [2]: Active; Activity [3]: Active; Activity [4]: Dose-dependent effect; fold change (FC) (HepG2 2.2.15 [5]): 1.3
5 | OCCCC[C@@H]1[C@H]2CCCN3CCC[C@@H](CN1Cc1ccccc1)[C@@H]23 | 25.5 | –
6 | Cc1cccc(OC(C)C(=O)N2C[C@@H]3CCCN4CCC[C@@H]([C@H]34)[C@H]2CCCC(=O)O)c1 (some centres not stated) | < 10 | –
7 | CCCN1C[C@@H]2CCCN3CCC[C@@H]([C@H]23)[C@H]1CCCC(=O)O | < 10 | –
8 | Cc1ccc(S(=O)(=O)N2C[C@@H]3CCCN4CCC[C@@H]([C@H]34)[C@H]2CCCC(=O)O)cc1 | 39.8 | –
9 | OCCCC[C@H]1NC[C@@H]2CCCN3CCC[C@H]1[C@H]23 [MATRINOL] | 39.3 | –
10 | O=C(O)CCC[C@@H]1[C@H]2CCCN3CCC[C@@H](CN1C(=O)c1ccccc1)[C@@H]23 | 33.6 | –
11 | O=C(O)CCC[C@@H]1[C@H]2CCCN3CCC[C@@H](CN1C(=O)CCl)[C@@H]23 | < 10 | –
12 | Cc1cccc(OCC(=O)N2C[C@@H]3CCCN4CCC[C@@H]([C@H]34)[C@H]2CCCC(=O)O)c1 | < 10 | –
13 | O=C1CCC[C@@H]2[C@H]3CCCN4CCC[C@@H](CN12)[C@@H]34 [MATRINE] | 52.4 | –
14 | COc1ccc(CN2C[C@@H]3CCC[N+]4([O-])CCC[C@@H]([C@H]34)[C@H]2CCCC(=O)O)cc1 (some centres not stated) | 69.7 | –
15 | O=C(O)CCC[C@@H]1[C@H]2CCCN3CCC[C@@H](CN1CCO)[C@@H]23 | 53.7 | –
16 | O=C(O)CCC[C@@H]1[C@H]2CCCN3CCC[C@@H](CN1CC1CC1)[C@@H]23 | < 10 | –
17 | O=C(O)CCC[C@H]1NC[C@@H]2CCC[N+]3([O-])CCC[C@H]1[C@H]23 (some centres not stated) [OXYMATRINIC ACID] | 45.5 | –
18 | C[N+]1(C)C[C@@H]2CCC[N+]3([O-])CCC[C@@H]([C@H]23)[C@H]1CCCC(=O)O (some centres not stated) | < 10 | –
19 | O=CN1C[C@@H]2CCCN3CCC[C@@H]([C@H]23)[C@H]1CCCC(=O)O | < 10 | –
20 | O=C(O)CCC[C@H]1NC[C@@H]2CCCN3CCC[C@H]1[C@H]23 [MATRINIC ACID] | 46.2 | –
21 | O=C(O)CCC[C@@H]1[C@H]2CCC[N+]3([O-])CCC[C@@H](CN1CC1CC1)[C@@H]23 (some centres not stated) | < 10 | –
22 | [O-][N+]12CCC[C@H]3CN[C@H](CCCCO)[C@@H](CCC1)[C@H]32 (some centres not stated) [OXYMATRINOL] | < 10 | –
23 | COc1ccc(CN2C[C@@H]3CCCN4CCC[C@@H]([C@H]34)[C@H]2CCCCO)cc1 | 12.2 | –
24 | O=C(O)CCC[C@@H]1[C@H]2CCCN3CCC[C@@H](CN1C(=O)/C=C/c1ccccc1)[C@@H]23 | < 10 | –
25 | CCN1C[C@@H]2CCCN3CCC[C@@H]([C@H]23)[C@H]1CCCC(=O)O | < 10 | –
26 | O=C(O)CCC[C@@H]1[C@H]2CCCN3CCC[C@@H](CN1C(=O)CO)[C@@H]23 | < 10 | –
27 | O=C(O)CCC[C@@H]1[C@H]2CCCN3CCC[C@@H](CN1Cc1ccccc1)[C@@H]23 | 55.9 | –
28 | O=C1CCC[C@@H]2[C@H]3CCC[N+]4([O-])CCC[C@@H](CN12)[C@@H]34 (some centres not stated) [OXYMATRINE] | 52 | Activity (Hepatitis B virus): 56%; Activity [4]: Dose-dependent effect
29 | O=C(O)CCC[C@@H]1[C@H]2CCC[N+]3([O-])CCC[C@@H](CN1Cc1ccccc1)[C@@H]23 (some centres not stated) | 58.2 | –
30 | C[N+]1(C)C[C@@H]2CCCN3CCC[C@@H]([C@H]23)[C@H]1CCCC(=O)O | 14.1 | –
